# Laboratory results from US20020137929A1, “1 - (3-heterocyclylphenyl) isothiourea, -isourea, -guanidine and -amidine herbicidal agents” (Intellectual Property Department, BASF Aktiengesellschaft, priority 1998, published 2002).
# Key:
# [1] = tested on: ZEAMX (Corn, Field); experiment: Preemergence herbicidal evaluation; assay type: in vivo, Zea mays; conditions: rated 4-5 weeks after treatment
# Outline: (§1)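 Sown cups got a single aqueous acetone spray of test compound (roughly 0.0156–0.500 kg/ha) before seedlings emerged. Evaluation, 4–5 weeks on, used a 0–9 visual scale covering plant stand, vigor, size, malformation, chlorosis and general appearance compared with controls.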
# [2] = tested on: MOOVA (Monochoria); experiment: Preemergence weed control under flooded paddy conditions; assay type: in vivo, Monochoria vaginalis; conditions: rated 3-4 weeks after treatment
# Outline: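 Seeds or propagules sown in top 0.5 cm of silt loam soil, flooded 1.5 to 3 cm above surface throughout. Compound in 50/50 v/v aqueous/acetone pipetted into flood water at about 0.0313 to 0.500 kg/ha. Visual 0-9 rating versus control after three to four weeks in greenhouse.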
# [3] = tested on: ORYSAT (Rice, Tebonnet); experiment: Postemergence herbicidal evaluation; assay type: in vivo, Oryza sativa, (L.) Tebonnet; conditions: postemergence
# Outline: (§2)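 Compound is applied as a foliar spray to seedlings about two weeks old, formulated in equal parts acetone and water with 0.5% TWEEN 20 and delivered at 40 psi to give about 0.0156–0.500 kg per hectare. Injury is rated visually 0–9 after four to five weeks.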
# [4] = tested on: ECHCG (Barnyardgrass); experiment: Postemergence herbicidal evaluation; assay type: in vivo, Echinochloa crus-galli; conditions: postemergence
# Outline: as §2
# [5] = tested on: ECHORC (Watergrass (Calif.)); experiment: Preemergence weed control under flooded paddy conditions; assay type: in vivo, Echinochloa oryzoides; conditions: rated 3-4 weeks after treatment
# Outline: (§3)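 Visual injury scored 0-9 against control three to four weeks post-treatment, greenhouse-grown. Application: acetone/water (50/50) solutions dosed directly into flood water (1.5-3 cm over silt loam, planted top 0.5 cm), roughly 0.0313 to 0.500 kg/ha active ingredient.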
# [6] = tested on: ABUTH (Velvetleaf); experiment: Postemergence herbicidal evaluation; assay type: in vivo, Abutilon theophrasti; conditions: postemergence
# Outline: as §2
# [7] = tested on: SETVI (Foxtail, Green); experiment: Postemergence herbicidal evaluation; assay type: in vivo, Setaria viridis; conditions: postemergence
# Outline: as §2
# [8] = tested on: GALAP (Galium); experiment: Postemergence herbicidal evaluation; assay type: in vivo, Galium aparine; conditions: postemergence
# Outline: as §2
# [9] = tested on: IPOHE (Morningglory, Ivyleaf); experiment: Preemergence herbicidal evaluation; assay type: in vivo, Ipomoea hederacea; conditions: rated 4-5 weeks after treatment
# Outline: as §1
# [10] = tested on: CYPIR (Rice Flatsedge); experiment: Preemergence weed control under flooded paddy conditions; assay type: in vivo, Cyperus iria; conditions: rated 3-4 weeks after treatment
# Outline: as §3
# [11] = tested on: TRZAWR (Wheat, Winter, cv Riband); experiment: Preemergence herbicidal evaluation; assay type: in vivo, Triticum aestivum; conditions: rated 4-5 weeks after treatment
# Outline: as §1
# [12] = rate 0.0313 kg/ha, rating scale 0-9
# [13] = rate 0.0625 kg/ha, rating scale 0-9
# [14] = rate 0.1250 kg/ha, rating scale 0-9
# [15] = rate 0.2500 kg/ha, rating scale 0-9
structure (smiles),measurement,setting,value
"Cn1c(C(F)(F)F)cc(=O)n(-c2cc(N=C3SCC(=O)N3Cc3ccco3)c(Cl)cc2F)c1=O [Compound 122, 3-{4-Chloro-2-fluoro-5-[(3-furfuryl-4-oxo-2-thiazolidinylidene)amino]phenyl}-1-methyl-6-(trifluoromethyl)-2,4(1H,3H)-pyrimidinedione]",Preemergence herbicidal rating ZEAMX,[1]; rate 0.0156 kg/ha,0.0
same,Preemergence herbicidal rating ZEAMX,[1]; rate 0.0313 kg/ha,0.0
same,Preemergence herbicidal rating ZEAMX,[1]; rate 0.0625 kg/ha,0.0
same,Preemergence herbicidal rating ZEAMX,[1]; rate 0.1250 kg/ha,0.0
same,Preemergence herbicidal rating ZEAMX,[1]; rate 0.2500 kg/ha,0.0
same,Preemergence herbicidal rating ZEAMX,[1]; rate 0.5000 kg/ha,1.0
same,"herbicidal effect rating, MOOVA",[2]; 0.0313 kg/ha,8.0
same,"herbicidal effect rating, MOOVA",[2]; 0.0625 kg/ha,9.0
same,"herbicidal effect rating, MOOVA",[2]; 0.1250 kg/ha,9.0
same,"herbicidal effect rating, MOOVA",[2]; 0.2500 kg/ha,9.0
same,herbicidal rating ORYSAT,[3]; rate 0.0156 kg/ha,3.5
same,herbicidal rating ORYSAT,[3]; rate 0.0313 kg/ha,3.5
same,herbicidal rating ORYSAT,[3]; rate 0.0625 kg/ha,3.5
same,herbicidal rating ORYSAT,[3]; rate 0.1250 kg/ha,5.0
same,herbicidal rating ECHCG,[4]; rate 0.0156 kg/ha,2.0
same,herbicidal rating ECHCG,[4]; rate 0.0313 kg/ha,3.0
same,herbicidal rating ECHCG,[4]; rate 0.0625 kg/ha,4.0
same,herbicidal rating ECHCG,[4]; rate 0.1250 kg/ha,5.0
same,"herbicidal effect rating, ECHORC",[5]; 0.0313 kg/ha,6.0
same,"herbicidal effect rating, ECHORC",[5]; 0.0625 kg/ha,7.0
same,"herbicidal effect rating, ECHORC",[5]; 0.1250 kg/ha,7.0
same,"herbicidal effect rating, ECHORC",[5]; 0.2500 kg/ha,7.0
same,herbicidal rating ABUTH,[6]; rate 0.0156 kg/ha,9.0
same,herbicidal rating ABUTH,[6]; rate 0.0313 kg/ha,9.0
same,herbicidal rating ABUTH,[6]; rate 0.0625 kg/ha,9.0
same,herbicidal rating ABUTH,[6]; rate 0.1250 kg/ha,9.0
same,herbicidal rating SETVI,[7]; rate 0.0156 kg/ha,6.0
same,herbicidal rating SETVI,[7]; rate 0.0313 kg/ha,7.0
same,herbicidal rating SETVI,[7]; rate 0.0625 kg/ha,9.0
same,herbicidal rating SETVI,[7]; rate 0.1250 kg/ha,9.0
same,herbicidal rating GALAP,[8]; rate 0.0156 kg/ha,2.0
same,herbicidal rating GALAP,[8]; rate 0.0313 kg/ha,2.0
same,herbicidal rating GALAP,[8]; rate 0.0625 kg/ha,4.0
same,herbicidal rating GALAP,[8]; rate 0.1250 kg/ha,6.0
same,Preemergence herbicidal rating IPOHE,[9]; rate 0.0156 kg/ha,0.0
same,Preemergence herbicidal rating IPOHE,[9]; rate 0.0313 kg/ha,0.0
same,Preemergence herbicidal rating IPOHE,[9]; rate 0.0625 kg/ha,0.0
same,Preemergence herbicidal rating IPOHE,[9]; rate 0.1250 kg/ha,2.0
same,Preemergence herbicidal rating IPOHE,[9]; rate 0.2500 kg/ha,1.0
same,Preemergence herbicidal rating IPOHE,[9]; rate 0.5000 kg/ha,1.0
same,"herbicidal effect rating, CYPIR",[10]; 0.0313 kg/ha,4.0
same,"herbicidal effect rating, CYPIR",[10]; 0.0625 kg/ha,7.0
same,"herbicidal effect rating, CYPIR",[10]; 0.1250 kg/ha,7.0
same,"herbicidal effect rating, CYPIR",[10]; 0.2500 kg/ha,8.0
same,Preemergence herbicidal rating TRZAWR,[11]; rate 0.0156 kg/ha,0.0
same,Preemergence herbicidal rating TRZAWR,[11]; rate 0.0313 kg/ha,0.0
same,Preemergence herbicidal rating TRZAWR,[11]; rate 0.0625 kg/ha,0.0
same,Preemergence herbicidal rating TRZAWR,[11]; rate 0.1250 kg/ha,0.0
same,Preemergence herbicidal rating TRZAWR,[11]; rate 0.2500 kg/ha,0.0
same,Preemergence herbicidal rating TRZAWR,[11]; rate 0.5000 kg/ha,1.0
"Cn1c(C(F)(F)F)cc(=O)n(-c2cc(N=C3SCC(=O)N3C3CC3)c(Cl)cc2F)c1=O [Compound 152, 3-{4-Chloro-5-[(3-cyclopropyl-4-oxo-2-thiazolidinylidene)amino]-2-fluorophenyl}-1-methyl-6-(trifluoromethyl)-2,4(1H,3H)-pyrimidinedione]",Preemergence herbicidal rating ZEAMX,[1]; [12],0.0
same,Preemergence herbicidal rating ZEAMX,[1]; [13],1.0
same,Preemergence herbicidal rating ZEAMX,[1]; [14],1.0
same,Preemergence herbicidal rating ZEAMX,[1]; [15],2.0
same,"herbicidal effect rating, MOOVA",[2]; 0.0625 kg/ha,3.0
same,"herbicidal effect rating, MOOVA",[2]; 0.1250 kg/ha,3.0
same,"herbicidal effect rating, MOOVA",[2]; 0.2500 kg/ha,3.0
same,herbicidal rating ORYSAT,[3]; rate 0.0156 kg/ha,1.5
same,herbicidal rating ORYSAT,[3]; rate 0.0313 kg/ha,2.0
same,herbicidal rating ORYSAT,[3]; rate 0.0625 kg/ha,3.0
same,herbicidal rating ECHCG,[4]; rate 0.0156 kg/ha,1.0
same,herbicidal rating ECHCG,[4]; rate 0.0313 kg/ha,2.0
same,herbicidal rating ECHCG,[4]; rate 0.0625 kg/ha,2.0
same,"herbicidal effect rating, ECHORC",[5]; 0.0625 kg/ha,0.0
same,"herbicidal effect rating, ECHORC",[5]; 0.1250 kg/ha,0.0
same,"herbicidal effect rating, ECHORC",[5]; 0.2500 kg/ha,0.0
same,herbicidal rating ABUTH,[6]; rate 0.0156 kg/ha,6.0
same,herbicidal rating ABUTH,[6]; rate 0.0313 kg/ha,4.0
same,herbicidal rating ABUTH,[6]; rate 0.0625 kg/ha,9.0
same,herbicidal rating SETVI,[7]; rate 0.0156 kg/ha,0.0
same,herbicidal rating SETVI,[7]; rate 0.0313 kg/ha,3.0
same,herbicidal rating SETVI,[7]; rate 0.0625 kg/ha,3.0
same,herbicidal rating GALAP,[8]; rate 0.0156 kg/ha,0.0
same,herbicidal rating GALAP,[8]; rate 0.0313 kg/ha,0.0
same,herbicidal rating GALAP,[8]; rate 0.0625 kg/ha,2.0
same,Preemergence herbicidal rating IPOHE,[9]; [12],0.0
same,Preemergence herbicidal rating IPOHE,[9]; [13],1.0
same,Preemergence herbicidal rating IPOHE,[9]; [14],4.0
same,Preemergence herbicidal rating IPOHE,[9]; [15],7.0
same,"herbicidal effect rating, CYPIR",[10]; 0.0625 kg/ha,0.0
same,"herbicidal effect rating, CYPIR",[10]; 0.1250 kg/ha,0.0
same,"herbicidal effect rating, CYPIR",[10]; 0.2500 kg/ha,0.0
same,Preemergence herbicidal rating TRZAWR,[11]; [12],0.0
same,Preemergence herbicidal rating TRZAWR,[11]; [13],1.0
same,Preemergence herbicidal rating TRZAWR,[11]; [14],1.0
same,Preemergence herbicidal rating TRZAWR,[11]; [15],1.0
"Cn1c(C(F)(F)F)cc(=O)n(-c2cc(N=C3SCC(=O)N3Cc3ccc(Br)cc3)c(Cl)cc2F)c1=O [Compound 148, 3-{5-{[3-(p-Bromobenzyl)-4-oxo-2-thiazolidinyl-idene]amino}-4-chloro-2-fluorophenyl}-1-methyl-6-(trifluoromethyl)-2,4(1H,3H)-pyrimidinedione]",Preemergence herbicidal rating ZEAMX,[1]; [12],0.0
same,Preemergence herbicidal rating ZEAMX,[1]; [13],0.0
same,Preemergence herbicidal rating ZEAMX,[1]; [14],0.0
same,Preemergence herbicidal rating ZEAMX,[1]; [15],1.0
same,"herbicidal effect rating, MOOVA",[2]; 0.0313 kg/ha,7.0
same,"herbicidal effect rating, MOOVA",[2]; 0.0625 kg/ha,7.0
same,"herbicidal effect rating, MOOVA",[2]; 0.1250 kg/ha,9.0
same,"herbicidal effect rating, MOOVA",[2]; 0.2500 kg/ha,9.0
same,herbicidal rating ORYSAT,[3]; rate 0.0156 kg/ha,2.0
same,herbicidal rating ORYSAT,[3]; rate 0.0313 kg/ha,3.0
same,herbicidal rating ORYSAT,[3]; rate 0.0625 kg/ha,3.0
same,herbicidal rating ECHCG,[4]; rate 0.0156 kg/ha,2.0
same,herbicidal rating ECHCG,[4]; rate 0.0313 kg/ha,3.0
same,herbicidal rating ECHCG,[4]; rate 0.0625 kg/ha,3.0
same,"herbicidal effect rating, ECHORC",[5]; 0.0313 kg/ha,6.0
same,"herbicidal effect rating, ECHORC",[5]; 0.0625 kg/ha,7.0
same,"herbicidal effect rating, ECHORC",[5]; 0.1250 kg/ha,9.0
same,"herbicidal effect rating, ECHORC",[5]; 0.2500 kg/ha,9.0
same,herbicidal rating ABUTH,[6]; rate 0.0156 kg/ha,9.0
same,herbicidal rating ABUTH,[6]; rate 0.0313 kg/ha,9.0
same,herbicidal rating ABUTH,[6]; rate 0.0625 kg/ha,9.0
same,herbicidal rating SETVI,[7]; rate 0.0156 kg/ha,2.0
same,herbicidal rating SETVI,[7]; rate 0.0313 kg/ha,2.0
same,herbicidal rating SETVI,[7]; rate 0.0625 kg/ha,4.0
same,herbicidal rating GALAP,[8]; rate 0.0156 kg/ha,2.0
same,herbicidal rating GALAP,[8]; rate 0.0313 kg/ha,2.0
same,herbicidal rating GALAP,[8]; rate 0.0625 kg/ha,2.0
same,Preemergence herbicidal rating IPOHE,[9]; [12],0.0
same,Preemergence herbicidal rating IPOHE,[9]; [13],0.0
same,Preemergence herbicidal rating IPOHE,[9]; [14],0.0
same,Preemergence herbicidal rating IPOHE,[9]; [15],0.0
same,"herbicidal effect rating, CYPIR",[10]; 0.0313 kg/ha,4.0
same,"herbicidal effect rating, CYPIR",[10]; 0.0625 kg/ha,4.0
same,"herbicidal effect rating, CYPIR",[10]; 0.1250 kg/ha,6.0
same,"herbicidal effect rating, CYPIR",[10]; 0.2500 kg/ha,7.0
same,Preemergence herbicidal rating TRZAWR,[11]; [12],0.0
same,Preemergence herbicidal rating TRZAWR,[11]; [13],0.0
same,Preemergence herbicidal rating TRZAWR,[11]; [14],0.0
same,Preemergence herbicidal rating TRZAWR,[11]; [15],0.0
